Patent publication US20040039040A1, “Urea derivative and adhesive-molecule inhibitor containing the same as active ingredient” (priority 2000, published 2004)

Target: VLA-4-IgG chimera protein (Homo sapiens, UniProt P05556+P13612)
Sequence (P13612 with tags, fused parts or gaps limits assumed): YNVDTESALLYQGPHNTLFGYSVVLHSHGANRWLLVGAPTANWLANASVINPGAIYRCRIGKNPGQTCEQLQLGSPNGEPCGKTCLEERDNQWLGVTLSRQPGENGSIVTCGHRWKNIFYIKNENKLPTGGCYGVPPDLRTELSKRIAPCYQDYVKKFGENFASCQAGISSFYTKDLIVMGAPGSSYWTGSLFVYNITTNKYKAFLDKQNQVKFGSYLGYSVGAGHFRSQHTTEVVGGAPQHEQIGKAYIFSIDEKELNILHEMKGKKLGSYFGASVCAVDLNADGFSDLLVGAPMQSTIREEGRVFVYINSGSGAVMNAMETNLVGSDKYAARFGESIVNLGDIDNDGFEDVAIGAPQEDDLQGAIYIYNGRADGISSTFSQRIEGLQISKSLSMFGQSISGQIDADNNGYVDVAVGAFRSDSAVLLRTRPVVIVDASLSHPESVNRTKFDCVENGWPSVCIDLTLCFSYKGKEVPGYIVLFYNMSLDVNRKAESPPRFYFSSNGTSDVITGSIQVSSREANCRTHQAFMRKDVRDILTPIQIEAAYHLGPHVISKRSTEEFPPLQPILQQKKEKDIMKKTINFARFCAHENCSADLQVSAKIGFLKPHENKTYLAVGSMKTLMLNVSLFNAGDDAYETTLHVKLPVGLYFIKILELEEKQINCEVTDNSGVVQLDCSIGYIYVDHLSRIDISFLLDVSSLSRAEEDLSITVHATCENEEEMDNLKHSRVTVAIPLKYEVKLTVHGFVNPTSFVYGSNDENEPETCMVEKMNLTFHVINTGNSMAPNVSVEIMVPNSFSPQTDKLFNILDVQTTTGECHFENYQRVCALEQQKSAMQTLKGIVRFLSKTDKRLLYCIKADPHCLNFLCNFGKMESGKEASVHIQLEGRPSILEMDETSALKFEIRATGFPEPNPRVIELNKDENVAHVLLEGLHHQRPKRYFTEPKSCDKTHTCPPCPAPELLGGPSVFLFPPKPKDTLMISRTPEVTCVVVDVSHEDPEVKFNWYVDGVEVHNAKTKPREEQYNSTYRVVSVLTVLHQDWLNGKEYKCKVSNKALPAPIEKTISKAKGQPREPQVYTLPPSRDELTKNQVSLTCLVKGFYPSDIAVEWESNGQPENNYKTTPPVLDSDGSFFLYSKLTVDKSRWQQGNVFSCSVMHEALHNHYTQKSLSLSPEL
Sequence (P05556 with tags, fused parts or gaps limits assumed): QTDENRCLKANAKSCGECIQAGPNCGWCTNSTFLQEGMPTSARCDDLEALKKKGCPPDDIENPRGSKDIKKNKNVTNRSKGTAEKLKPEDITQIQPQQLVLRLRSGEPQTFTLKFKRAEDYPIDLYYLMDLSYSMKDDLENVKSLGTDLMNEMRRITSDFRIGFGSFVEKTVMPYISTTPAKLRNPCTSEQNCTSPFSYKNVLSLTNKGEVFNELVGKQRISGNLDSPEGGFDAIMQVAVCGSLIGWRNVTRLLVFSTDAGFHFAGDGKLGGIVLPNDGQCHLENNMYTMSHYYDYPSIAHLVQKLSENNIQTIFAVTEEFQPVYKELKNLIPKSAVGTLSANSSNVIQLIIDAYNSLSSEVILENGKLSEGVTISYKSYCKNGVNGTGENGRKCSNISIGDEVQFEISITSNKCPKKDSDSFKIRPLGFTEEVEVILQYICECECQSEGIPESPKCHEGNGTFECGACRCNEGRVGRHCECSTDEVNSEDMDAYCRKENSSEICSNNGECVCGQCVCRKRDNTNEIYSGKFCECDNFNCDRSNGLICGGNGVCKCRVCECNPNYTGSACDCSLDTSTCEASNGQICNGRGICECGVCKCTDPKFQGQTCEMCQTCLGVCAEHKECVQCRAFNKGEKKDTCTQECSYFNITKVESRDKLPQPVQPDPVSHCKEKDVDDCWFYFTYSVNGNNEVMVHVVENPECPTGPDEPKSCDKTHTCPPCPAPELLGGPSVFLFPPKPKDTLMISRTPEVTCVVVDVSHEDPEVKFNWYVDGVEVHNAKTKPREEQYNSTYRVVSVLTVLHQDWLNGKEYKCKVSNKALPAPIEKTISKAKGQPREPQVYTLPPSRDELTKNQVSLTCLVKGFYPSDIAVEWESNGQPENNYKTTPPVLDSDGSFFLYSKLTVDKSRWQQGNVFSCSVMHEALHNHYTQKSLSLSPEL
Assay: Inhibitory effect against binding between CS-1 peptide and VLA-4-IgG chimera protein
Details: binding of VLA-4-IgG chimera protein to immobilized CS-1 peptide-rabbit IgG conjugate; compound preincubated 20 min; 30° C. 3 hours; absorbance at 490 nm
Description: The inhibitory activity of the compound according to the present invention against the adhesion of VLA-4 may be determined by using an adhesion-measuring system in which the adhesion between VLA-4-expressing cells such as Ramos cells or Jurkat cells and fibronectin or fibronectin fragment such as a peptide containing CS-1 sequence (Gly Pro Glu Ile Leu Asp Val Pro Ser Thr) (hereinafter referred to as “CS-1 peptide”), immobilized on an immunoplate is measured. Alternatively, a binding-measuring system in which the adhesion between VLA-4 protein and fibronectin or fibronectin fragment such as CS-1 peptide, immobilized on an immunoplate may be used. In the present invention, it is preferred to evaluate the inhibitory activity of a compound using a binding-measuring system in which adhesion between a chimera protein of VLA-4-immunoglobulin (VLA-4-IgG chimera protein) and CS-1 peptide (Japanese Patent Application No. H9-234544), but the method is not restricted thereto. The “VLA-4-IgG chimera protein” herein means the heterodimer complex of the chimera protein between α4 of VLA-4 and immunoglobulin (hereinafter referred to as “VLAα4-IgG chimera protein”) and a chimera protein between β1 of VLA-4 and immunoglobulin (hereinafter referred to as “VLAβ1-IgG chimera protein”). As the immunoglobulin, although heavy chain or light chain of IgG, IgM or the like may be used, IgG1 heavy chain is used in the present invention. When testing the inhibitory effect of a compound, it is preferred to mix VLA-4-IgG chimera protein and the test compound previously.
In accordance with the teaching of a report (Humphrise, M. J. et al. J.Bio.Chem., 262,6886-6892(1987)), a conjugate between a peptide (Gys Leu His Gly Pro Glu Glu Ile Leu Asp Val Pro Ser Thr) containing CS-1 sequence and rabbit IgG (Sigma) was prepared. This was diluted with phosphate buffer (hereinafter referred to as “PBS(−)” for short), and the obtained solution was placed in the wells of a 96-well immunoplate (NUNC) in an amount of 100 μl/well, followed by leaving to stand the immunoplate at 4° C. for 16 hours to immobilize the conjugate.
The wells were then washed twice with PBS(−), and 1% BSA solution in PBS, which BSA was heated at 80° C. for 10 minutes, was placed in each well in an amount of 300 μl/well. The immunoplate was left to stand at 4° C. for 3 hours, and then the solution in each well was removed by suction.
Each compound and VLA-4-IgG chimera protein (100 μl) were preliminarily reacted at room temperature for 20 minutes, and then the resulting mixture was allowed to react with the CS-1 peptide in each well at 30° C. for 3 hours. Thereafter, non-bound VLA-4-IgG chimera protein was removed by suction, and each well was washed twice with 0.1% BSA-containing TBS buffer (150 mM NaCl, 25 mM Tris-HCl, 1 mM MnCl2, PH7.4). To the bound VLA-4-IgG chimera protein, biotin-labelled anti-human IgG antibody (Vector) as a primary antibody was added, and then avidin-labelled horse radish peroxidase (Sigma) as a secondary antibody was added, thereby allowing the reactions. Then o-phenylenediamine as a substrate was added to color the reaction solution, and the absorbance at 490 nm was measured. From this absorbance, the binding inhibitory activity of each compound was determined.
CS(=O)(=O)N1CC2(CCN(C(=O)N[C@@H](Cn3ccc(NC(=O)c4c(Cl)cccc4Cl)nc3=O)C(=O)O)CC2)c2ccccc21 [Compound 28, 3-(4-((2,6-dichlorophenyl)carbonylamino)-2-oxohydropyrimidinyl)-2-((1-(methylsulfonyl)spiro[indoline-3,4′-piperidin]-10-yl)carbonylamino)propanoic Acid] gave an IC50 of 3.8 nM.
Molecule C[C@@H]1CCC[C@H](C)N1C(=O)N[C@@H](Cn1ccc(NC(=O)c2c(Cl)cccc2Cl)nc1=O)C(=O)O [Compound 50, 3-(4-((2,6-dichlorophenyl)carbonylamino)-2-oxohydropyrimidinyl)-2-((2,6-dimethylpiperidyl)carbonylamino)propanoic Acid] has an IC50 of 4.5 nM.
Work on O=C(Nc1ccn(C[C@H](NC(=O)N2CCC(n3c(=O)[nH]c4ccccc43)CC2)C(=O)O)c(=O)n1)c1c(Cl)cccc1Cl [Compound 32, 3-(4-((2,6-dichlorophenyl)carbonylamino)-2-oxohydropyrimidinyl)-2-((4-(2-oxo-3-azaindolinyl)piperidyl)carbonylamino)propanoic Acid] yielded an IC50 of 0.97 nM.
CC(=O)NC1(c2ccccc2)CCN(C(=O)N[C@@H](Cn2ccc(NC(=O)c3c(Cl)cccc3Cl)nc2=O)C(=O)O)CC1 [Compound 37] showed an IC50 of 3.5 nM.
O=C(Nc1ccn(C[C@H](NC(=O)N2CCC3(CC2)C(=O)NCN3c2ccccc2)C(=O)O)c(=O)n1)c1c(Cl)cccc1Cl [Compound 35] showed an IC50 of 2.4 nM.

Test system: not given
Assay: not given
Details: not given
In the case of O=C(Nc1ccc(C[C@@H](C(=O)O)N2C(=O)NC3(CCCCC3)C2=O)cc1)c1c(Cl)cccc1Cl [Compound 44], the melting point is reported as 250 °C.
For O=C(N[C@@H](Cn1ccc(NC(=O)c2c(Cl)cccc2Cl)nc1=O)C(=O)O)NC1(C(=O)Nc2ccccc2)CCCCC1 [Compound 8, 3-(4-((2,6-dichlorophenyl)carbonylamino)-2-oxohydropyrimidinyl)-2-((((N-phenylcarbamoyl)cyclohexyl)amino)carbonylamino)propanoic Acid], the melting point was 193 to 195 °C.
